Source: article PMC13047053, “Crystal structure of human INPP5K with an allosteric inhibitor reveals the structural basis for species specific potency” (Scientific Reports, 2026)
Entries after “also recorded” stand apart in the source; their conditions may differ.

Key:
human PIPP = biological target: T1, human PIPP (Homo sapiens, UniProt Q15735); assay: Inorganic phosphate detection assay for phosphatase inhibition; format: biochemical; details: 20 µM diC8-PI(3,4,5)P3, 20 min
T1 construct: full-length human PIPP (amino acids 1–1 006) containing an N-terminal His8-tag; His8 (N); made in house; host or cells: Expi293 cells (pcDNA3.4, transient)
T1 sequence (Q15735 1-1006): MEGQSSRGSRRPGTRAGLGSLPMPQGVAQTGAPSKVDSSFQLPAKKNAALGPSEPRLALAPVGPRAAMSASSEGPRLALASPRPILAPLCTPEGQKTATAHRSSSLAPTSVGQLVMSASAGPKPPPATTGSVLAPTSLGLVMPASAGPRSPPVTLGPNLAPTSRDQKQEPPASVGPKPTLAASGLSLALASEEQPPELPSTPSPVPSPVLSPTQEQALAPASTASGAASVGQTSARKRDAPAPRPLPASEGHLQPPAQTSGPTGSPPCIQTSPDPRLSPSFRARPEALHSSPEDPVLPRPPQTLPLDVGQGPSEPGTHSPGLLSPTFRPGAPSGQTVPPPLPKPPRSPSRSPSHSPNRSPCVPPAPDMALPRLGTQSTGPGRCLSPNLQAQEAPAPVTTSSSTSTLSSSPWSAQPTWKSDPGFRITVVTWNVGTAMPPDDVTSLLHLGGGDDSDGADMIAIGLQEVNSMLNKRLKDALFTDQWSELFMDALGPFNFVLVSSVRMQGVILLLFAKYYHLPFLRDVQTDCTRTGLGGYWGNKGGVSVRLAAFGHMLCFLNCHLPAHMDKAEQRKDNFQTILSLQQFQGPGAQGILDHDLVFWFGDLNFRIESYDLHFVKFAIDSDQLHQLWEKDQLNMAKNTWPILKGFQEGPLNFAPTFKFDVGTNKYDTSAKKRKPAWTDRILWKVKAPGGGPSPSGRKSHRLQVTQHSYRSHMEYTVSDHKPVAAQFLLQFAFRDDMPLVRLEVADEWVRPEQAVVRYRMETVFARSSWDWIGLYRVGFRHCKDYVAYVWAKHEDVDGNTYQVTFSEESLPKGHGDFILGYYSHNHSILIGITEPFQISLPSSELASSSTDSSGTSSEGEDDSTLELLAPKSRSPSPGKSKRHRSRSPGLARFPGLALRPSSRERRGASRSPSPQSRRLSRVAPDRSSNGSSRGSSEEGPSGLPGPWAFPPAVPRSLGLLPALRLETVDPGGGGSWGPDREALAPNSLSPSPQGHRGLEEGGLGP

human INPP5K = biological target: T2, human INPP5K (Homo sapiens, UniProt Q9BT40); assay: as above; format: biochemical
T2 construct: full-length human INPP5K (amino acids 1–448, UniProt ID: Q9BT40); FLAG (N); made in house; host or cells: Expi293 cells (pcDNA3.4, transient)
T2 sequence (Q9BT40 1-448): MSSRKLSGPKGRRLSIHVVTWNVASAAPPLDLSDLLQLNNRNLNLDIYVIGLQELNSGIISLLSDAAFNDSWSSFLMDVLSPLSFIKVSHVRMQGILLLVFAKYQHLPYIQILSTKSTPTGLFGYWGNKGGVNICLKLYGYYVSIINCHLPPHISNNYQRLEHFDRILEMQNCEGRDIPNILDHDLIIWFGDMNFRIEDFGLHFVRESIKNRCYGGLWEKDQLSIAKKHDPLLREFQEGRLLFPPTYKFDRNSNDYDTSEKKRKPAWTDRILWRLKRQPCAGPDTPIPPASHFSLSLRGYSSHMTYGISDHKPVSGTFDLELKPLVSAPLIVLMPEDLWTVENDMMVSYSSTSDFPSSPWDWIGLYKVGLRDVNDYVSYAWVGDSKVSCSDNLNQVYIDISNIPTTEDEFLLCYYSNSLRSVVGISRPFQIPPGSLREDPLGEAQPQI

`CC(C)c1sc(NC(=O)c2ccccc2)c(C(=O)O)c1-c1ccccc1` [CPD-1] was tested, and the IC50 (human PIPP) was greater than 100000 nM, the IC50 (human INPP5K; inorganic phosphate detection assay, 20 µM diC8-PI(3,4,5)P3, 20 min) was 2900 nM and the “mode of inhibition of human INPP5K” value (human INPP5K; result in words) was “noncompetitive inhibition; also recorded: noncompetitive inhibitor”.
